Entries after “also recorded” stand apart in the source; their conditions may differ.
Tests used:
T47D cells = assay: Antiproliferative activity in vitro in the T47D cell line (estradiol-stimulated, crystal violet); format: cell-based, human; settings: 0.1 nM estradiol, 6 days
Protocol: T47D cells were grown in charcoal-treated serum supplemented with 0.1 nM E2 (estradiol) plus antiprogestin (I) for 6 days with one medium change. Following fixation and subsequent staining with crystal violet, the absorbance was recorded and values normalized to the absorbance of untreated controls as described in R. B. Lichtner, J. Steroid Biochem. Mol. Biol. 1999, 71; 181-189. The TUNEL assay is performed analogous to above Example 5 with the only difference that instead of tissue sections cells that are cultivated on microscopic slides are used for the assay.

[1] = test system: DMBA-induced mammary carcinoma of the rat; assay: Dose-response study in the DMBA-induced mammary tumor model; format: in vivo, Sprague-Dawley rats; settings: 5 mg/kg s.c. daily, 4 weeks
Protocol: Immature female Sprague-Dawley rats (49-51 days old; 10 animals/group) were used in this study. Mammary tumors were induced by a single oral administration of 10 mg 7,12-dimethylbenz[a]anthracene (DMBA, Serva/Heidelberg). Rats with at least one established tumor with a size of more than 150 mm^2 were treated for 4 weeks by: 1) solvent control, 2) ovariectomy at treatment start, 3) antiprogestin (I), 0,5 mg/kg s.c., 4) antiprogestin (1), 2 mg/kg s.c., 5) antiprogestin (I), 5 mg/kg s.c., 6) antiprogestin (1), 10 mg/kg s.c., and 7) onapristone, 5 mg/kg, s.c., daily. As a parameter for growth inhibition the change of tumor area (in % with respect to initial tumor size) determined by weekly caliper measurements was used. For statistical analysis of intergroup differences of mean values the Kruskal-Wallis-test was used. For a further description and evaluation of the DMBA prevention model, see R. G. Metha, European Journal of Cancer 36 (2000), pp. 1275-1282.

[2] = test system: NMU-induced mammary carcinoma of the rat; assay: Tumor growth inhibition in NMU-induced breast cancer model in rat; format: in vivo, Sprague-Dawley rats; settings: 5 mg/kg/day, 4 weeks
Protocol: Tumors were induced by a single intravenous injection of NMU (nitrosomethylurea, 50 mg/kg) in female Sprague-Dawley rats (obtained from Tierzucht Schönwalde, age 50-55 days). Starting 10 days later, rats with at least one established tumor were treated for 4 weeks by: 1) solvent control, 2) ovariectomy at treatment start, 3) antiprogestin (I), 1.0 mg/kg/day, 4) antiprogestin (1), 0.5 mg/kg/day and 5) onapristone, 5 mg/kg/day. As a parameter for growth inhibition the change of tumor area (in % of initial tumor size) determined by weekly caliper measurements was used. For statistical analysis of intergroup differences of mean values the Kruskal-Wallis-test was used.

| SMILES | inhibition of estradiol-stimulated T47D cell growth (T47D cells) | tumor growth inhibiting effect relative to antiprogestin (I) [1] | tumor growth inhibiting effect relative to antiprogestin (I) at 0.5 mg/kg [2] |
| --- | --- | --- | --- |
| CN(CCCCC[C@@H]1Cc2cc(O)ccc2[C@@H]2[C@@H]1[C@@H]1CC[C@H](O)[C@@]1(C)C[C@@H]2F)CCCSCCCC(F)(F)C(F)(F)F [11β-fluoro-7α-{5-[N-methyl-N-3-(4,4,5,5,5-pentafluoropentylthio)-propylamino]-pentyl}-estra-1,3,5(10)-trien-3,17β-diol] | distinctly less effective than antiprogestin (I) |  |  |
| CN(C)c1ccc([C@H]2C[C@]3(C)[C@@H](CC[C@]3(O)CCCO)[C@@H]3CCC4=CC(=O)CCC4=C32)cc1 [onapristone, reference compound] | did not show any inhibiting effect; also recorded: no reducing effect on cell growth | distinctly less effective than antiprogestin (I) | distinctly less effective than antiprogestin (1) |
